From PubChem BioAssay (NCI)
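48-hour exposure; five concentrations; linearly interpolated endpoints. The concentration for full growth arrest is given as TGI.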

Columns and labels:
Assay in all cases: NCI tumour cell line growth inhibition, 48 h
[1] = test system: OVCAR-5 ovarian
[2] = test system: A498 renal
[3] = test system: COLO 205 colon
[4] = test system: MCF7 breast
[5] = test system: ACHN renal
[6] = test system: UACC-62 melanoma
[7] = test system: NCI-H522 lung
[8] = test system: SNB-75 CNS
[9] = test system: TK-10 renal
[10] = test system: MDA-MB-435
[11] = test system: EKVX NSCLC
[12] = test system: NCI-H460 lung
[13] = test system: UO-31 renal
[14] = test system: HS 578T breast
[15] = test system: BT-549 breast
[16] = test system: MDA-MB-231 breast
[17] = test system: 786-0 renal
[18] = test system: RXF 393 renal
[19] = test system: HOP-92 NSCLC
[20] = test system: IGROV1 ovarian
[21] = test system: MDA-N
[22] = test system: K-562 leukemia
[23] = test system: DU-145 prostate
[24] = test system: SF-268 CNS
[25] = test system: T-47D breast
[26] = test system: OVCAR-8 ovarian
[27] = test system: SN12C renal
[28] = test system: MALME-3M melanoma
[29] = test system: OVCAR-4 ovarian
[30] = test system: SK-MEL-2 melanoma
[31] = test system: LOX IMVI melanoma
[32] = test system: OVCAR-3 ovarian
[33] = test system: CAKI-1 renal
[34] = test system: SF-539 CNS
[35] = test system: HT29 colon
[36] = test system: NCI-H226 lung
[37] = test system: RPMI-8226 leukemia
[38] = test system: CCRF-CEM leukemia
[39] = test system: HCT-15 colon
[40] = test system: A549 NSCLC
[41] = test system: NCI-H23 lung
[42] = test system: HL-60(TB) leukemia
[43] = test system: HOP-62 NSCLC
[44] = test system: HCT-116 colon
[45] = test system: SW-620 colon
[46] = test system: KM12 colon
[47] = test system: SK-OV-3 ovarian
[48] = test system: M14 melanoma
[49] = test system: SF-295 CNS
[50] = test system: NCI/ADR-RES ovarian
[51] = test system: SNB-19 CNS
[52] = test system: UACC-257 melanoma

CCN1C(=O)C(=C/C=C/C=C2/N(C)c3ccccc3C2(C)C)C(=O)N(CC)C1=S
TGI [1]: > 100 µM | TGI [2]: > 100 µM | TGI [3]: > 100 µM | TGI [4]: > 100 µM | TGI [5]: > 100 µM | TGI [6]: > 100 µM | TGI [7]: > 100 µM | TGI [8]: > 100 µM | TGI [9]: > 100 µM | TGI [10]: > 100 µM | TGI [11]: > 100 µM | TGI [12]: > 100 µM | TGI [13]: > 100 µM | TGI [14]: > 100 µM | TGI [15]: 70.9 µM | TGI [16]: > 100 µM | TGI [17]: > 100 µM | TGI [18]: > 100 µM | TGI [19]: > 100 µM | TGI [20]: > 100 µM | TGI [21]: > 100 µM | TGI [22]: > 100 µM | TGI [23]: > 100 µM | TGI [24]: > 100 µM | TGI [25]: > 100 µM | TGI [26]: > 100 µM | TGI [27]: > 100 µM | TGI [28]: > 100 µM | TGI [29]: > 100 µM | TGI [30]: > 100 µM | TGI [31]: > 100 µM | TGI [32]: > 100 µM | TGI [33]: > 100 µM | TGI [34]: > 100 µM | TGI [35]: > 100 µM | TGI [36]: > 100 µM | TGI [37]: > 100 µM | TGI [38]: > 100 µM | TGI [39]: > 100 µM | TGI [40]: > 100 µM | TGI [41]: > 100 µM | TGI [42]: > 100 µM | TGI [43]: > 100 µM | TGI [44]: > 100 µM | TGI [45]: > 100 µM | TGI [46]: > 100 µM | TGI [47]: > 100 µM | TGI [48]: > 100 µM | TGI [49]: > 100 µM | TGI [50]: > 100 µM | TGI [51]: > 100 µM | TGI [52]: > 100 µM
